Peptide text beside a SMILES is read from it. * marks the point of attachment. Boc = CC(C)(C)OC(=O)*

In the OPERA property sets (Mansouri et al. 2018) one finds logP and logD data, which are given here for 129 compounds.

Settings in one series: not given
Consider `Cc1[nH]cnc1CSCCNc1ncc(Cc2ccc3c(c2)OCO3)c(=O)[nH]1`, for which the logP (usually the decadic logarithm of the partition coefficient of the neutral form, usually between octanol and water) stood at 2.11.
As to `CCO[Si](OCC)(c1ccccc1)c1ccccc1`, the logP came to 4.92.
Compound `O=C(O)Cc1ccccc1O` registered a logP of 0.85.
The compound `COC(=O)c1ccccc1N` returned a logP of 1.88.
Same read-out and setting: the result for `Nc1ccc(F)cc1F` reads 1.54; that for `ClCCCCl`, 2; that for `CCCCCBr`, 3.37.
On to `N#CCc1ccco1`, for which the logP worked out at 0.85.
As to `CN(C)c1ccncc1`, the logP turned out to be 1.34.
`CCC(C)C(NC(=O)C(CCC(=O)O)NC(C)=O)C(=O)NC(Cc1ccccc1)C(N)=O` (stereo not drawn) (Ac-Glu-Ile-Phe-NH2; configuration not given here) gave a logP of 0.43.
Same read-out and setting: next, `CC(C)(C(=O)O)C(=O)O`: 0.39; `Brc1ccncc1`: 1.54.
`CCCCCCOC(=O)c1cc(O)c(O)c(O)c1` gave a logP of 3.17.
Same read-out and setting: the result for `COC(=O)CC#N` reads -0.47; that for `CCC(C)c1cc([N+](=O)[O-])cc(C(C)CC)c1O` (centres undefined), 4.8; that for `CNC(=O)Oc1ccc(Cl)c(C)c1`, 2.57.
`COCC(=O)N(c1c(C)cccc1C)C(C)C(=O)OC` (centres undefined) displayed a logP of 1.65.
On to `CC(=O)NC1CC(=O)N(c2ccccc2)C1=O` (centres undefined), for which the logP is -0.33.
Take `COCCCc1ccccc1`: the logP worked out at 2.7.
In the case of `CCOC(=O)n1cnc(CC(NC(=O)C2CCC(=O)N2)C(=O)N2CCCC2C(N)=O)c1` (centres undefined), the logP is -1.3.
Regarding `O=C([O-])c1ccccc1O.[Na+]`, the logP was -1.43.
Still for that read-out and setting: next, `Cc1cccc(Nc2ccccc2C(=O)O)c1C`: 5.12.
Compound `CCCCNCCCC` displayed a logP of 2.83.
For the compound `O=[N+]([O-])c1cc[n+]([O-])c2ccc(Cl)cc12`, the logP was found to be 1.41.
`COc1cccc(C(N)=O)c1` yielded a logP of 0.85.
As to `CC(=O)N(c1ccccc1)c1ccccc1`, the logP worked out at 2.02.
Same read-out and setting: the result for `C=CCC1(C(C)CC)C(=O)NC(=O)NC1=O` (centres undefined) reads 1.47; that for `Cc1ncc([N+](=O)[O-])n1CC(C)O` (centres undefined), 0.22; that for `CCC(C)N(CC(O)COc1ccccc1)CC(O)COc1ccccc1` (centres undefined), 3.46.
On to `CC(C)(C)NC(=O)NO`, for which the logP is 0.5.
Regarding `CN(C)C(N(C)C)=S(I)c1cccc(Br)c1` (centres undefined), the logP turned out to be 0.01.
In turn, `C[C@]12CC[C@H]3[C@@H](CCC4=CC(=O)CC[C@@]43C)[C@@H]1CC[C@@H]2C(=O)CO` showed a logP of 2.88.
In turn, `S=C1CCCCCN1` returned a logP of 0.75.
Turning to `O=[N+]([O-])c1cc[n+]([O-])c2ccccc12`, the logP came out at 1.09.
`CC(=O)NCC(=O)N[C@@H](C)C(=O)N[C@H](C(N)=O)C(C)C` (Ac-Gly-Ala-Val-NH2) yielded a lipophilicity (logP) of -1.56.
Same read-out and setting: the result for `O=C(O)C(c1ccccc1)n1cccc1` (centres undefined) reads 1.57; that for `O=C(O)c1ccc(C(F)(F)F)cc1`, 3.1.
Turning to `CCN(CC)C(=O)C1C2CC3C(OC(=O)C31)C2O` (centres undefined), the logP was 0.15.
For `CC(=O)c1ccc(C(C)=O)cc1`, the logP worked out at 1.34.
`C1OCOCO1` displayed a logP of -0.43.
As for `Cc1cccc2cccnc12`, the logP came out at 2.6.
In turn, `CCCOP(=O)(OCCC)OCCC` yielded a lipophilicity (logP) of 1.87.
Consider `CNn1cc(C(=O)O)c(=O)c2cc(F)c(N3CCN(C)CC3)cc21`, for which the logP came to 0.23.
As for `c1ccn2cccc2c1`, the logP turned out to be 2.49.
`CC(=O)NC(C)C(=O)NC(C)C(=O)NC(C)C(=O)NC(C)(C)C` (centres undefined) showed a logP of -0.51.
Turning to `CSSC`, the logP was determined as 1.77.
Still for that read-out and setting: the result for `S=C1CCCCCCN1` reads 1; that for `O=C(O)COc1ccc(Cl)c([N+](=O)[O-])c1`, 1.85.
For `CN(C)/N=N/c1ccccc1CO`, the logP worked out at 1.73. The logP values of the last two compounds are within 0.2 log units of each other.
`Clc1ccc(-c2cc3ccccn3c2)cc1` registered a logP of 5.2.
For the compound `O=S(=O)(c1ccccc1)c1ccccc1`, the logP was determined as 2.4.
Still for that read-out and setting: next, `CCOc1ccc2cc[nH]c2c1`: 2.53; `CC(=O)Oc1ccccc1[N+](=O)[O-]`: 1.55; `CO[C@H]1[C@@H](O)C[C@H](O[C@H]2[C@@H](O)C[C@H](O[C@H]3[C@@H](O)C[C@H](O[C@H]4CC[C@@]5(C)[C@H](CC[C@@H]6[C@@H]5C[C@@H](O)[C@]5(C)[C@@H](C7=CC(=O)OC7)CC[C@]65O)C4)O[C@@H]3C)O[C@@H]2C)O[C@@H]1C`: 1.8.
Compound `CC(C)(C)c1cccc(C(C)(C)C)c1O` had a logP of 4.92.
In the case of `O=C(O)CC[Se]Cc1ccc([N+](=O)[O-])cc1`, the logP came to 1.63.
The compound `COc1ccc(CC(C)N)cc1` (centres undefined) registered a logP of 1.77.
`Nc1ccc(C(=O)Oc2ccccc2)c(O)c1` gave a logP of 3.15.
`O=C1CCC(=O)N1c1cccc([N+](=O)[O-])c1` returned a logP of 0.38.
As for `C=CCOc1ccccc1Cc1cnc(N)nc1N`, the logP was found to be 2.31.
On the same count and under the same terms, the result for `CCc1cc([N+](=O)[O-])cc([N+](=O)[O-])c1O` reads 2.67.
`Clc1ccccn1` returned a logP of 1.22.
For `Cc1ccc2[nH]ccc2c1`, the logP stood at 2.68.
Still for that read-out and setting: next, `CC(=O)OCC(=O)[C@@]1(O)[C@H](OC(C)=O)C[C@H]2[C@@H]3CCC4=CC(=O)C=C[C@]4(C)[C@@]3(F)[C@@H](O)C[C@@]21C`: 1.92; `CCN(CC)CCCN(c1ccccc1)C1Cc2ccccc2C1`: 4.86; `NCCN1CCCC1`: 0.08.
Regarding `CCCc1ccccc1O`, the logP is 2.93.
Same read-out and setting: the result for `CCCCCc1cc(OC)c(CC(C)N)cc1OC` (centres undefined) reads 4.43; that for `CN(C)CCOC(=O)c1ccccc1`, 2.06.
For `O=[N+]([O-])c1ccc(C=NO)o1`, the logP is 0.3.
`CC(=O)OCC(=O)[C@@]1(O)[C@@H](C)C[C@H]2[C@@H]3CCC4=CC(=O)C=C[C@]4(C)[C@@]3(F)[C@@H](O)C[C@@]21C`: the logP came out at 2.77.
In turn, `N#Cc1ccc(CC(=O)Nc2ccccc2)cc1` displayed a logP of 2.82.
The compound `O=NN1CCCCCC1` returned a logP of 0.92.
Compound `CCOC(=O)Cc1ccccc1` gave a logP of 2.28.
Compound `OCC(F)(F)F` returned a logP of 0.41.
As to `C=CCCC=C`, the logP turned out to be 2.87.
Same read-out and setting: the result for `c1ccc2c(c1)CCc1ccccc1-2` reads 4.52.
On to `O=C(O)C(Cc1ccccc1)n1cccc1` (centres undefined), for which the logP was 2.34.
The compound `CN(C)N=Nc1cccc2oc3ccccc3c12` returned a logP of 4.55.
The same measure, in the same setting: next, `O=C(O)C(c1ccc(-c2ccccc2)cc1)C(O)c1cccc(F)c1` (centres undefined): 3.31; `C=CCSc1ccccc1`: 3.51; `FC(F)(F)c1nc2ccc(Cl)cc2[nH]1`: 3.39.
As to `CN(C)N=Nc1ccc(CCCC(=O)O)cc1`, the logP was found to be 2.62.
`NCCCc1ccccn1`: the logP turned out to be 0.49.
On the same count and under the same terms, next, `COC1OC(=O)c2ccccc21` (centres undefined): 1; `CNC(=O)Oc1cccc(C#N)c1`: 0.97; `CCC(C)C(=O)Nc1ccccc1` (centres undefined): 2.56.
Compound `CC(C)C(C#N)c1ccccc1` (centres undefined) gave a logP of 2.33.
For `COc1cccc(OC)c1C(=O)O`, the logP is 0.66.
Same read-out and setting: next, `CCCCn1cc(C)c(=O)[nH]c1=O`: 0.91.
Consider `CC(C)c1ccc(C(=O)O)cc1`, for which the logP was determined as 3.4.
The compound `NC(=O)CCCc1ccccc1` registered a lipophilicity (logP) of 1.41.
With `c1ccc(-n2cccc2)cc1`, the logP was determined as 3.08.
Still for that read-out and setting: the result for `NC(=O)c1cnccn1` reads -0.6; that for `c1ccc(N2CCCCC2)cc1`, 2.98; that for `CN(O)C(N)=O`, -0.46.
The same measure, in the same setting: the result for `C[Si](C)(C)c1ccccc1` reads 4.72.
The compound `COc1ccc(O)c2ncccc12` registered a logP of 2.06.
`CSc1nc(NC(C)C)nc(NC(C)C)n1` came in with a logP of 3.51.
Turning to `O=C(CCl)Nc1ccccc1`, the logP was determined as 1.63.
For the compound `CCCCOC(=O)c1ccccc1`, the logP was 3.84.
`COc1cc2c(c(OC)c1OC)-c1ccc(=O)c(OC)cc1[C@@H](NC(=O)C(F)(F)F)CC2`: the logP worked out at 2.08.
On to `CC(=O)c1ccc(C(=O)O)cc1`, for which the logP came out at 1.61.
`COc1cccc(C(=O)NN)c1`: the logP stood at 0.4.
Take `O=C(O)CCC(Nc1ccc(Br)cc1)C(=O)O` (centres undefined): the logP stood at 1.12.
As for `CC(C)CCn1cnc([N+](=O)[O-])n1`, the logP is 1.34.
For the compound `CC(C)OC(=O)Nc1cccc(Cl)c1`, the logP was 3.51.
Compound `NC(=O)C1CCCN1C(=O)C(Cc1cn(C(=O)OC2CCCCC2)cn1)NC(=O)C1CCC(=O)N1` (centres undefined) returned a logP of 0.6.
The compound `CC(=O)N(c1ccc(N2CCOCC2)nn1)n1c(C)ccc1C` yielded a logP of 1.64.
Take `c1cc2nc[nH]c2cn1`: the logP turned out to be 0.18.
The compound `CC(C)C(NC(=O)C(Cc1ccccc1)NC(=O)OC(C)(C)C)C(=O)O` (stereo not drawn) (Boc-Phe-Val-OH; configuration not given here) registered a logP of 2.88.
Compound `O=P(O)(O)c1ccccc1` displayed a logP of 0.54.
Turning to `COc1cccc2c1C(=N)c1c(O)c3c(c(O)c1C2=O)CC(O)(C(=O)CO)CC3OC1CC(N2CCOCC2C#N)C(O)C(C)O1` (centres undefined), the logP is 1.97.
In the case of `COc1cc(CC(C)N)c(OC)cc1C` (centres undefined), the logP amounted to 2.24.
`CCC(C)c1ccc(O)cc1` (centres undefined) displayed a logP of 3.08.
The compound `CC(C)(O)C(C(=O)O)c1ccc(-c2ccccc2)cc1` (centres undefined) gave a logP of 3.25.
`CCCCN1CCCCC1C(=O)Nc1c(C)cccc1C` (centres undefined) yielded a logP of 3.41. The logP values of the last two compounds are within 0.2 log units of each other.
The same measure, in the same setting: next, `NCCCCC(=O)O`: -2.63.
Consider `O=C1CCC(=O)N1c1cccc(I)c1`, for which the logP was 1.39.
`O=C1C=C(NCCO)C(=O)c2ccccc21` came in with a logP of 1.23.
The compound `O=C1CCC(N2C(=O)c3ccccc3C2=O)C(=O)N1` (centres undefined) gave a logP of 0.33.
In turn, `CCC(=O)C1(c2cccc(OC(=O)OCC(C)C)c2)CCN(C)CC1` had a logP of 2.38.
Take `CCNC(=O)Nc1ccccc1`: the logP turned out to be 1.64.
`NC(=O)c1cnc2ccccc2n1` registered a logP of 0.98.
`CNC(=S)NCCCCc1cnc[nH]1` displayed a logP of 0.39.
`CCSCCSP(=O)(OC)OC` returned a logP of 1.02.
Take `CC(=O)Oc1ccccc1Br`: the logP came to 2.2.
`CCC(CNC)c1ccccc1` (centres undefined) came in with a logP of 2.82.

Staying with this series, now noted: pH 7.2.
With `COC(=O)C(c1ccccc1)C1CCCCN1` (centres undefined), the logD (in general, lipophilicity at a set pH, counting ionised and neutral species) is 0.2.
